Results as given in PubChem BioAssay (NCI).
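All cell lines were grown in 96-well plates and treated with compound for 48 hours. GI50 marks 50% less growth. TGI marks complete inhibition of growth.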

Assays:
Experiment in all cases: NCI tumour cell line growth inhibition, 48 h
HOP-62 NSCLC = tested on: HOP-62 NSCLC
ACHN renal = tested on: ACHN renal
MOLT-4 leukemia = tested on: MOLT-4 leukemia
NCI-H23 lung = tested on: NCI-H23 lung
SN12C renal = tested on: SN12C renal
HCT-116 colon = tested on: HCT-116 colon
LOX IMVI melanoma = tested on: LOX IMVI melanoma
DU-145 prostate = tested on: DU-145 prostate
CAKI-1 renal = tested on: CAKI-1 renal
MDA-MB-231 breast = tested on: MDA-MB-231 breast

SMILES | TGI (HOP-62 NSCLC) | TGI (ACHN renal) | TGI (MOLT-4 leukemia) | TGI (NCI-H23 lung) | TGI (SN12C renal) | TGI (HCT-116 colon) | TGI (LOX IMVI melanoma) | TGI (DU-145 prostate) | TGI (CAKI-1 renal) | TGI (MDA-MB-231 breast) | GI50 (HOP-62 NSCLC) | GI50 (ACHN renal) | GI50 (MOLT-4 leukemia) | GI50 (NCI-H23 lung) | GI50 (SN12C renal) | GI50 (HCT-116 colon) | GI50 (LOX IMVI melanoma) | GI50 (DU-145 prostate) | GI50 (CAKI-1 renal) | GI50 (MDA-MB-231 breast)
CCOc1ccc2c(c1)c(CC(=O)O)cn2C | > 100 µM | > 100 µM | > 100 µM | > 100 µM | > 100 µM | > 100 µM | > 100 µM | > 100 µM | > 100 µM | > 100 µM |  |  |  |  |  |  |  |  |  | 
CCCCNc1ccc(Nc2ccccc2)cc1 | 71.4 µM | > 100 µM | 25.9 µM | 43 µM | > 100 µM | 22.7 µM | 21.5 µM | > 100 µM | 88.5 µM | 95 µM | 14.4 µM | 16.7 µM | 3.23 µM | 3.15 µM | 6.28 µM | 2.97 µM | 5.85 µM | 7.87 µM | 18.6 µM | 16.9 µM
Cc1ccc(-n2nnnc2-c2cnc(N3CCOCC3)nc2-c2cccc(C(F)(F)F)c2)cc1 | 4.9 µM | > 14.7 µM | > 10.4 µM | 4.11 µM | > 13.9 µM | 5.08 µM | 7.53 µM | 16.9 µM | 13.2 µM | > 12.2 µM | 1.44 µM | 4 µM | 2.18 µM | 1.36 µM | 2.53 µM | 1.35 µM | 2.53 µM | 1.62 µM | 1.45 µM | 3.24 µM
COc1ccc(CCN2CCC(CN(C)Cc3cnn(-c4ccccc4)c3)CC2)cc1 | 35.6 µM | 33 µM | 66.7 µM | > 100 µM | > 100 µM | 25.6 µM | 24.8 µM | > 100 µM | 19.9 µM | 20.1 µM | 15.4 µM | 10.9 µM | 12.8 µM | 29.8 µM | 21.3 µM | 11.8 µM | 12.1 µM | 37 µM | 5.42 µM | 3.58 µM
COc1cc(Cl)cc(-c2nn(-c3cccc(NC(=O)Nc4ccc(Cl)c(Cl)c4)c3)cc2-c2ccncc2)c1 | 35.1 µM | > 100 µM | 6.13 µM | 9.04 µM | > 100 µM | > 100 µM | 12.4 µM | > 100 µM | 16.7 µM | 4.52 µM | 3.38 µM | 3.23 µM | 1.69 µM | 2.62 µM | 3.1 µM | 2.02 µM | 2.91 µM | 3.85 µM | 2.38 µM | 1.87 µM
CN1CCN(c2nc(-c3csc(-c4cccs4)n3)cc3ccccc23)CC1 | 3.67 µM | 3.25 µM | 4.15 µM | 3.92 µM | 3.47 µM | 3.36 µM | 3.22 µM | 3.34 µM | 3.01 µM | 3.13 µM | 1.81 µM | 1.8 µM | 2.03 µM | 1.93 µM | 1.81 µM | 1.76 µM | 1.78 µM | 1.8 µM | 1.61 µM | 1.53 µM
CC(C)(C)OC(=O)NCc1cccc(N=C=S)c1 | 55.8 µM | 67.6 µM | 53.6 µM | 47.6 µM | 60.3 µM | 36 µM | 31.9 µM | 59.2 µM | 53.9 µM | > 85.7 µM | 21.8 µM | 21.1 µM | 19.7 µM | 18.5 µM | 22.1 µM | 18 µM | 16.7 µM | 22.7 µM | 20.5 µM | 25.7 µM
O=[N+]([O-])c1cc2no[n+]([O-])c2cc1N1CCCCC1 | 31.3 µM | 7.21 µM | 4.95 µM | 43.4 µM | 4.34 µM | 5.99 µM | 4.81 µM | 6.18 µM | 12.5 µM | 44.3 µM |  |  |  |  |  |  |  |  |  | 
